Source: the NIST ThermoML archive (doi:10.1016/j.jct.2015.07.014)

Test: xn = mol fraction of the nth substance listed
Settings: Fluid (supercritical or subcritical phases), Buoyancy - hydrostatic balance with magnetic suspension - one sinker

[Ar] [argon] + O=C=O
Settings	mass density [kg/m3]
298.12 K, 30871 kPa, x1 = 0.99	502.471
298.17 K, 30944 kPa, x1 = 0.95	514.698
298.18 K, 28957 kPa, x1 = 0.99	476.725
298.19 K, 10975 kPa, x1 = 0.99	187.045
298.19 K, 12973 kPa, x1 = 0.99	222.038
298.19 K, 14969 kPa, x1 = 0.99	256.759
298.19 K, 16969 kPa, x1 = 0.99	291.075
298.19 K, 18969 kPa, x1 = 0.99	324.674
298.19 K, 26962 kPa, x1 = 0.99	448.747
298.2 K, 20967 kPa, x1 = 0.99	357.351
298.2 K, 22966 kPa, x1 = 0.99	389.003
298.2 K, 24964 kPa, x1 = 0.99	419.491
298.22 K, 10976 kPa, x1 = 0.95	190.182
298.23 K, 12976 kPa, x1 = 0.95	226.201
298.23 K, 14974 kPa, x1 = 0.95	261.987
298.23 K, 16969 kPa, x1 = 0.95	297.274
298.23 K, 18970 kPa, x1 = 0.95	331.923
298.23 K, 20969 kPa, x1 = 0.95	365.576
298.23 K, 22968 kPa, x1 = 0.95	398.09
298.23 K, 24967 kPa, x1 = 0.95	429.349
298.23 K, 26965 kPa, x1 = 0.95	459.226
298.23 K, 28963 kPa, x1 = 0.95	487.701
323.2 K, 10978 kPa, x1 = 0.99	168.714
323.2 K, 24965 kPa, x1 = 0.99	375.34
323.2 K, 30955 kPa, x1 = 0.99	452.317
323.21 K, 14970 kPa, x1 = 0.99	230.302
323.21 K, 16971 kPa, x1 = 0.99	260.652
323.21 K, 18969 kPa, x1 = 0.99	290.39
323.21 K, 20969 kPa, x1 = 0.99	319.49
323.21 K, 22966 kPa, x1 = 0.99	347.807
323.21 K, 26962 kPa, x1 = 0.99	401.924
323.21 K, 28960 kPa, x1 = 0.99	427.589
323.22 K, 12973 kPa, x1 = 0.99	199.627
323.24 K, 24968 kPa, x1 = 0.95	382.594
323.24 K, 30958 kPa, x1 = 0.95	460.997
323.25 K, 16970 kPa, x1 = 0.95	265.1
323.25 K, 22969 kPa, x1 = 0.95	354.46
323.25 K, 28963 kPa, x1 = 0.95	435.856
323.26 K, 10976 kPa, x1 = 0.95	170.993
323.26 K, 12974 kPa, x1 = 0.95	202.641
323.26 K, 14973 kPa, x1 = 0.95	234.077
323.27 K, 18969 kPa, x1 = 0.95	295.579
323.27 K, 20973 kPa, x1 = 0.95	325.456
323.27 K, 26965 kPa, x1 = 0.95	409.68
348.21 K, 14972 kPa, x1 = 0.99	209.619
348.21 K, 16970 kPa, x1 = 0.99	236.897
348.21 K, 18972 kPa, x1 = 0.99	263.764
348.22 K, 20972 kPa, x1 = 0.99	290.057
348.22 K, 30956 kPa, x1 = 0.99	411.615
348.23 K, 28960 kPa, x1 = 0.99	388.704
348.24 K, 26963 kPa, x1 = 0.99	365.062
348.25 K, 10977 kPa, x1 = 0.99	154.064
348.25 K, 12974 kPa, x1 = 0.99	181.967
348.25 K, 24966 kPa, x1 = 0.99	340.708
348.25 K, 30958 kPa, x1 = 0.95	418.385
348.26 K, 22968 kPa, x1 = 0.99	315.675
348.28 K, 18972 kPa, x1 = 0.95	267.685
348.28 K, 20972 kPa, x1 = 0.95	294.53
348.28 K, 28962 kPa, x1 = 0.95	395.094
348.29 K, 22970 kPa, x1 = 0.95	320.729
348.29 K, 26966 kPa, x1 = 0.95	371.043
348.3 K, 10979 kPa, x1 = 0.95	155.9
348.3 K, 12976 kPa, x1 = 0.95	184.3
348.3 K, 14972 kPa, x1 = 0.95	212.437
348.3 K, 16971 kPa, x1 = 0.95	240.266
348.31 K, 24969 kPa, x1 = 0.95	346.237
373.22 K, 16970 kPa, x1 = 0.99	217.712
373.22 K, 18968 kPa, x1 = 0.99	242.204
373.22 K, 30957 kPa, x1 = 0.99	378.472
373.23 K, 22970 kPa, x1 = 0.99	289.853
373.23 K, 24965 kPa, x1 = 0.99	312.835
373.23 K, 26964 kPa, x1 = 0.99	335.305
373.24 K, 10977 kPa, x1 = 0.95	143.58
373.24 K, 14972 kPa, x1 = 0.99	192.822
373.24 K, 20969 kPa, x1 = 0.99	266.255
373.24 K, 28960 kPa, x1 = 0.99	357.169
373.25 K, 10978 kPa, x1 = 0.99	142.11
373.25 K, 12977 kPa, x1 = 0.99	167.627
373.28 K, 18969 kPa, x1 = 0.95	245.312
373.29 K, 16972 kPa, x1 = 0.95	220.418
373.29 K, 28963 kPa, x1 = 0.95	362.242
373.29 K, 30959 kPa, x1 = 0.95	383.847
373.3 K, 12975 kPa, x1 = 0.95	169.447
373.31 K, 14971 kPa, x1 = 0.95	195.043
373.31 K, 20969 kPa, x1 = 0.95	269.779
373.31 K, 26966 kPa, x1 = 0.95	340.003
373.32 K, 22966 kPa, x1 = 0.95	293.716
373.32 K, 24968 kPa, x1 = 0.95	317.167
398.26 K, 12977 kPa, x1 = 0.99	155.613
398.28 K, 10979 kPa, x1 = 0.99	132.065
398.28 K, 20968 kPa, x1 = 0.99	246.59
398.28 K, 30957 kPa, x1 = 0.99	350.842
398.29 K, 26962 kPa, x1 = 0.99	310.557
398.29 K, 28962 kPa, x1 = 0.99	330.96
398.3 K, 14970 kPa, x1 = 0.99	178.803
398.3 K, 18971 kPa, x1 = 0.99	224.388
398.3 K, 22969 kPa, x1 = 0.99	268.392
398.3 K, 24967 kPa, x1 = 0.99	289.714
398.31 K, 16969 kPa, x1 = 0.99	201.75
398.31 K, 26966 kPa, x1 = 0.95	314.455
398.31 K, 28963 kPa, x1 = 0.95	335.112
398.33 K, 14977 kPa, x1 = 0.95	180.735
398.33 K, 24965 kPa, x1 = 0.95	293.233
398.33 K, 30959 kPa, x1 = 0.95	355.238
398.34 K, 22971 kPa, x1 = 0.95	271.617
398.35 K, 18973 kPa, x1 = 0.95	226.932
398.35 K, 20972 kPa, x1 = 0.95	249.488
398.36 K, 12973 kPa, x1 = 0.95	157.068
398.36 K, 16970 kPa, x1 = 0.95	203.95
398.37 K, 10980 kPa, x1 = 0.95	133.275
423.22 K, 10980 kPa, x1 = 0.99	123.515
423.22 K, 16967 kPa, x1 = 0.99	188.325
423.23 K, 14969 kPa, x1 = 0.99	166.982
423.24 K, 12971 kPa, x1 = 0.99	145.339
423.28 K, 18967 kPa, x1 = 0.99	209.329
423.3 K, 20973 kPa, x1 = 0.99	230.071
423.3 K, 22965 kPa, x1 = 0.99	250.298
423.3 K, 30956 kPa, x1 = 0.99	327.48
423.31 K, 12974 kPa, x1 = 0.95	146.65
423.32 K, 24968 kPa, x1 = 0.95	273.195
423.33 K, 10981 kPa, x1 = 0.95	124.535
423.33 K, 14975 kPa, x1 = 0.95	168.571
423.33 K, 24964 kPa, x1 = 0.99	270.201
423.33 K, 26968 kPa, x1 = 0.95	292.962
423.33 K, 28959 kPa, x1 = 0.99	308.785
423.34 K, 18970 kPa, x1 = 0.95	211.466
423.34 K, 26961 kPa, x1 = 0.99	289.685
423.34 K, 28966 kPa, x1 = 0.95	312.296
423.35 K, 16970 kPa, x1 = 0.95	190.146
423.35 K, 20971 kPa, x1 = 0.95	232.422
423.35 K, 30960 kPa, x1 = 0.95	331.165
423.36 K, 22968 kPa, x1 = 0.95	252.983
